Patent publication US10906904B2, “ADO-resistant cysteamine analogs and uses thereof” (HORIZON ORPHAN LLC, priority 2015, dated 2021)
Read-outs that look alike come from different tables or passages of the source.

How the values were obtained:
[1] = tested on: cystinotic human fibroblasts; experiment: Cystine depletion assay; assay type: cell-based; conditions: for Emax: Homo sapiens, Fibroblast, 1 h; for Emax / Cystine Depletion (%): relative to cystine depletion by cysteamine (100%) at a similar concentration; for cystine depletion levels (in words): compared to cysteamine; for Cystine depletion: compound at 50 μM or 100 μM, Tables 1-3
Method: The ability of test compounds to deplete cystine from cystinotic human fibroblasts (Coriell) was determined by incubating compounds with cells for 60 min at 37° C., 95% (v/v) air/5% (v/v) CO2 in Minimal Essential Media Eagle. Treated cell samples were subsequently harvested, then homogenized to ensure plasma and lysosomal membrane disruption. Protein was removed by acid precipitation and cystine in the supernatant measured using LC-MS/MS and HILIC chromatography. Protein levels were determined and cystine levels reported as nM per mg/ml protein. Cystine levels after test compound treatment were expressed as a percentage of that of untreated control cells.
Compounds were assayed at a concentration of 50 μM or 100 μM according to the general methods described above.
Cystine depletion levels for the compounds are expressed in Table 4 as a percent relative to the cystine depletion achieved by cysteamine (c.f. cysteamine 100%) at a similar concentration.
Cystine depletion levels for each of the compounds in Table 5 are expressed as a percent relative to the cystine depletion achieved by cysteamine (c.f. cysteamine 100%) at a similar concentration.

[2] = Cystine reactivity assay; conditions: 30° C., percentage of 3 mM cysteamine
Method: Cystine reactivity was assessed by incubating 3 mM test compound with 100 nM BODIPY® FL L-Cystine (Life Tech.) at 30° C., pH 7.4 in phosphate buffer. […] Compound cystine reactivity was expressed as a percentage of that of 3 mM cysteamine.
Under resting conditions, the inherent fluorescence of BODIPY® FL L-cystine was very low due to the spatial proximity of the two BODIPY molecules causing quenching. Under chemical reaction (disruption of the S—S bond), the spatial distance was increased, the quenching lost, and measured fluorescence increased. Time (minutes) vs. fluorescence (relative fluorescence units—RFU) was plotted and linear regression analysis was performed to generate a slope value corresponding to the reaction rate in RFU/min and an R2 value.

[3] = tested on: St-HdhQ^111/111 cells; experiment: Glutamate-induced neuronal excitotoxicity assay; assay type: cell-based; conditions: STHdhQ111, 6 mM L-glutamate 24 hours, % of effect of 100 μM cysteamine; for viability at 10 µM: read-out: HdhQ^111/111 cell % survival (mean ± STD) Test Conc. 10 μM; for viability at 100 µM: read-out: HdhQ^111/111 cell % survival (mean ± STD) Test Conc. 100 μM
Method: The ability of test compounds to inhibit glutamate-induced excitotoxicity (neuroprotection) in St-HdhQ^111/111 cells was determined by incubating compounds with cells for 60 min at 33° C., 95% (v:v) air/5% (v:v) CO2 in Dulbecco's Modified Eagle Media. Following this, excitotoxicity was induced by the addition of 6 mM L-glutamate for 24 hours. Cell viability was assessed by measuring ATP levels using a luminescent-based CellTitre Glo assay (Promega). Compound neuroprotection (% cell survival) was expressed as a % of the effect recorded with 100 μM cysteamine (denoted as 100% cell survival).

[4] = target: T1, human recombinant ADO (Homo sapiens, UniProt Q96SZ5); assay type: in vitro ADME
T1 sequence (Q96SZ5 1-270): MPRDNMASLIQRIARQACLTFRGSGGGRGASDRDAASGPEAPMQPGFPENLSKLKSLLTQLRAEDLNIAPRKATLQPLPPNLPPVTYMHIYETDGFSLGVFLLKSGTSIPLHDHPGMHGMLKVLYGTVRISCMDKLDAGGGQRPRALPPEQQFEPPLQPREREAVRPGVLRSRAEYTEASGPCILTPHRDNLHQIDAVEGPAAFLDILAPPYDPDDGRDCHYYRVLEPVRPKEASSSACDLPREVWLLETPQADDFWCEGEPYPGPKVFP
Method: The rate of ADO metabolism was determined by incubating 15 mM test compound with 60 μg/ml human recombinant ADO and 20 nM MitoXpress® O2-sensitive fluorescent probe (Luxcel) at 37° C. in assay buffer/salt in a sealed assay chamber. The initial rate of fluorescence (excitation λ380 nm and emission λ650 nm) increase was used to measure ADO-dependent oxygen depletion activity. The ability of ADO to metabolize compounds and concomitantly consume oxygen was expressed relative to that of 15 mM cysteamine.

[5] = Table 4, read-out: Cystine Depletion (%)
[6] = Table 5, read-out: Cystine Depletion (%) Mean Value

| Compound | Emax [1, 6] [%] | viability at 10 µM [3] [%] | viability at 100 µM [3] [%] | also measured |
| --- | --- | --- | --- | --- |
| CN1CCCC(SSC2CCCN(C)C2)C1 (centres unmarked) [Compound 42152] | – | – | – | Emax [1, 5]: 126% |
| FC1(F)CN[C@H](CS)C1 [Compound 149611] | 27 | 35 ± 13 | 102 ± 13 | Cystine Reactivity Assay (30° C.) (%) Mean Value ([2]; Table 5): >90% |
| CN1CC[C@H](S)C1 | – | 11 ± 11 | 95 ± 6 | – |
| SCC1CCN1 (centres unmarked) [Compound 42212] | – | – | – | Cystine Reactivity Assay (30° C.) (%) Mean Value ([2]; Table 4): <50% |
| CC1(SSC2(C)CCNCC2)CCNCC1 [Compound 151272] | 11 | – | – | – |
| N[C@H]1CC[C@H](S)CC1 [Compound 42492] | – | – | – | Cystine Reactivity Assay (30° C.) (%) Mean Value ([2]; Table 4): <50% |
| FC1(F)CCNC[C@@H]1S [Compound 42694] | – | – | – | Cystine Reactivity Assay (30° C.) (%) Mean Value ([2]; Table 4): <50%; Emax [1, 5]: 20% |
| SCC1CNC1 [Compound 145585] | 11 | 13 ± 10 | 100 ± 9 | Cystine Reactivity Assay (30° C.) (%) Mean Value ([2]; Table 5): >90% |
| C[C@@]1(S)CCCNC1 [Compound 151182] | 59 | 1 ± 5 | 85 ± 11 | Cystine Reactivity Assay (30° C.) (%) Mean Value ([2]; Table 5): 59-90% |
| CN1CC[C@@H](SS[C@H]2CCN(C)C2)C1 [Compound 42342] | – | – | – | Emax [1, 5]: 91% |
| CC(C)N1CCC(S)CC1 [Compound 42458] | – | – | – | Cystine Reactivity Assay (30° C.) (%) Mean Value ([2]; Table 4): >90%; Emax [1, 5]: 91% |
| C1CNC[C@H](SS[C@@H]2CCCNC2)C1 [Compound 145609] | 121 | – | – | ADO Metabolism Assay (%) Mean Value ([4]; human, 15 mM): <25% |
| Sc1ccncc1 [Compound 42338] | – | – | – | Cystine Reactivity Assay (30° C.) (%) Mean Value ([2]; Table 4): <50% |
| N[C@H]1CC[C@@H](S)CC1 [Compound 42491] | – | – | – | Cystine Reactivity Assay (30° C.) (%) Mean Value ([2]; Table 4): <50%; ADO Metabolism Assay (%) Mean Value ([4]; human, 15 mM): <25% |
| SC1CNC1 [Compound 2a] | – | – | – | metabolism by ADO compared to cysteamine (in words) [4]: significantly reduced metabolism by ADO compared to cysteamine; cystine depletion levels (in words) [1]: slightly decreased; Cystine depletion [1]: 82% |
| CC(=O)SC1CCNCC1 [Compound 145692] | 75 | – | – | – |
| C[N+]1(C)CCC(S)CC1 | – | 1 ± 6 | 16 ± 7 | – |
| CN1CC[C@@H](S)C1 | – | 13 ± 13 | 93 ± 9 | – |
| C[C@@H](N)CS (single isomer, unassigned) [Compound 42099] | – | – | – | Cystine Depletion (%) ([1]; Table 4): 79% |
| CC1(S)CC(N)C1 (centres unmarked) [Compound 152071] | 70 | – | – | – |
| C[C@H](N)CS (single isomer, unassigned) [Compound 42-98] | – | – | – | Cystine Depletion (%) ([1]; Table 4): 70% |
| SC[C@@H]1CCCCN1 [Compound 145592] | 156 | 17 ± 10 | 88 ± 8 | Cystine Reactivity Assay (30° C.) (%) Mean Value ([2]; Table 5): >90% |
| N[C@H]1C[C@H](SS[C@H]2C[C@H](N)C2)C1 [Compound 151271] | 27 | – | – | – |
| C[C@]1(S)CCCNC1 [Compound 151181] | 69 | 3 ± 8 | 90 ± 9 | Cystine Reactivity Assay (30° C.) (%) Mean Value ([2]; Table 5): 50-90% |
| N[C@H]1CCCC[C@@H]1S [Compound 42693] | – | 80 ± 10 | 77 ± 9 | Cystine Reactivity Assay (30° C.) (%) Mean Value ([2]; Table 4): >90%; Emax [1, 5]: 110% |
| F[C@@H]1CNCC[C@H]1S | – | 3 ± 7 | 86 ± 10 | – |
| CN1CC(SSC2CN(C)C2)C1 [Compound 42151] | – | – | – | Emax [1, 5]: 133% |
| NC1(CS)CC1 [Compound 3d] | – | – | – | metabolism by ADO compared to cysteamine (in words) [4]: significantly reduced metabolism by ADO compared to cysteamine; ADO metabolism ([4]; human, 15 mM): 14%; cystine depletion levels (in words) [1]: slightly decreased; Cystine depletion [1]: 55% |
